# Patent publication US11834663B2, “Fibrotic treatment” (Monash University, priority 2015, dated 2023)
# Marks after values point to notes of the source that are not given here.
# Tested on: cardiac cytokine protein levels
# Assay: Cardiac cytokine protein levels by Bio-Plex multiplex assay in aged WT mice
# Assay type: in vivo, mouse
# Description: There are 8 different sets of in vivo experiments in this study: • A) Phenotypic characterisation of the heart and blood vessels in global IRAP knockout mice and their WT controls treated for 4 weeks with Angiotensin (Ang) II (800 ng/kg/min; s.c.) where mouse hearts and blood vessels were compared to tissue obtained from young WT and IRAP^−/− mice treated with saline. • B) Prevention of Ang II-induced changes in the cardiovascular system following IRAP inhibitor treatment. In the prevention model, WT mice were treated with Ang II (800 ng/kg/min; s.c.)±the IRAP inhibitor (HFI-419; 500 ng/kg/min for 28 days) or HFI-vehicle (1 DMSO:3 HBC). • C) Phenotypic characterisation of the aged heart, kidney and blood vessels in the global IRAP knockout mice where aged WT and IRAP^−/− mouse hearts, kidneys and blood vessels were compared to tissue obtained from young WT and IRAP^−/− mice. • D) Reversal of the age-induced changes in the cardiovascular system following IRAP inhibitor treatment. In the reversal model, aged WT mice were treated with either saline, IRAP inhibitor (HFI-419 at 500 ng/kg/min; compound 1 at 500 ng/kg/min; compound 2 at 50 ng/kg/min) or HFI-vehicle (1 DMSO: 3 HBC) for 4 weeks. • E) Prevention of ischemic-reperfusion injury in isolated hearts taken from aged global IRAP knockout mice and aged IRAP inhibitor (HFI-419 at 500 ng/kg/min; s.c.) treated WT mice compared to age-matched vehicle-treated (1 DMSO:3 HBC; s.c.) WT controls. • F) Phenotypic characterization of cardiac function using echocardiography in the aged global IRAP knockout mice compared to aged and young WT mice. • G) Phenotypic characterization of liver steatosis in IRAP knockout mice in a high fat diet (HFD) model. • H) Reversal of the salt-induced fibrosis in the liver following IRAP inhibitor treatment.
# The levels of cytokines in the heart ventricles and apex were detected by using the Bio-Plex multiplex assay (Bio-rad). Tissues were snap-frozen and homogenized with a Bio-Plex cell lysis kit (Biorad) according to the manufacturer's instructions. Briefly, tissues were washed once with 300 μl of wash buffer and homogenized in lysing solutions using Tissue Lyser (Qiagen). Samples were left on ice for 30 min and centrifuged at 6,000×g for 20 min at 4° C. Supernatant was collected and protein content was determined using Biorad protein assay (Biorad). 500 μg/ml of protein were used to detect the levels of cytokines. A panel of Bio-Plex Pro™ Mouse Cytokine Standard 23-Plex, Group I (IL-1α, IL-1β, IL-2, IL-3, IL-4, IL-5, IL-6, IL-9, IL-10, IL-12(p40), IL-12(p70), IL-13, IL-17A, Eotaxin, G-CSF, GM-CSF, IFN-γ, KC, MCP-1, MIP-1α, MIP-1β, RANTES, TNFα) was used, containing 23 different antibodies covalently coupled to the beads. 50 μl of sample (500 μg/ml) or known standard (200-900 μg/ml) was added to wells of a 96-well plate which was pre-coated with the diluted coupled beads specific for each antibody and incubated at RT with shaking at 300 RPM for 30 min in the dark. After washing away any unbound substances, biotinylated detection antibodies were added to create a sandwich complex and the plate was incubated for 30 min with shaking at 300 RPM in the dark at RT. Following three washes, the final detection complex was formed with the addition of streptavidin-phycoerythrin conjugate and incubated for 10 min in the dark at RT with shaking at 300 RPM. Following 3 washes with […], beads were resuspended in 125 μl of assay buffer. The samples were read using Bio-Plex MAGPIX Multiplex Reader (Bio-Plex Suspension System). Data were calculated by the Bio-Plex Manager software.
# [1] = hearts of HFI-419-treated aged WT mice, mean ± s.e.m
# [2] = relative ratio to mean of vehicle-treated aged WT
smiles,measurement,setting,value
CCOC(=O)C1=C(NC(C)=O)Oc2cc(O)ccc2C1c1cccnc1 (centres unmarked) [HFI-419],pro-inflammatory cytokines in heart,"aged WT mice, HFI-419 4 weeks vs vehicle, FIG. 14, Table 1",did not increase
same,"anti-inflammatory cytokines in heart, including IL-4, IL-9 and IL-12p40","aged WT mice, HFI-419 4 weeks vs vehicle, Table 1",marked increases
same,CCL-3 (MIP-1a) cardiac protein level,[1],2.493 ± 0.35 pg/mL
same,CCL-4 (MIP-1b) cardiac protein level,[1],92.74 ± 10.92 pg/mL
same,CCL-5 (RANTES) cardiac protein level,[1],2.839 ± 0.21 pg/mL
same,CCL-11 (Eotaxin) cardiac protein level,[1],140.3 ± 8.18 pg/mL
same,CXCL-1 (KC) cardiac protein level,[1],6.859 ± 0.34 pg/mL
same,G-CSF cardiac protein level,[1],1.912 ± 0.08 pg/mL
same,GM-CSF cardiac protein level,[1],38.18 ± 1.37 pg/mL
same,IL-1a cardiac protein level,[1],7.61 ± 0.56 pg/mL
same,IL-1b cardiac protein level,[1],69.83 ± 3.75 pg/mL
same,IL-4 cardiac protein level,[1],2.676 ± 0.06 pg/mL
same,IL-5 cardiac protein level,[1],3.96 ± 0.14 pg/mL
same,IL-6 cardiac protein level,[1],2.766 ± 0.15 pg/mL
same,IL-9 cardiac protein level,[1],557.8 ± 31.03 pg/mL
same,IL-10 cardiac protein level,[1],40.13 ± 1.36 pg/mL
same,IL-12 p40 cardiac protein level,[1],4.887 ± 0.28 pg/mL
same,IL-12 p70 cardiac protein level,[1],23.49 ± 1.83 pg/mL
same,IL-13 cardiac protein level,[1],90.19 ± 2.93 pg/mL
same,IL-17A cardiac protein level,[1],8.068 ± 0.29 pg/mL
same,L-2 cardiac protein level,[1],5.849 ± 0.78 pg/mL
same,M-CSF (IL-3) cardiac protein level,[1],1.562 ± 0.11 pg/mL
same,TNF-a cardiac protein level,[1],219.7 ± 9.76 pg/mL
same,CCL-3 (MIP-1a) Ratio of HFI to Vehicle,[2],0.88
same,CCL-4 (MIP-1b) Ratio of HFI to Vehicle,[2],0.78
same,CCL-5 (RANTES) Ratio of HFI to Vehicle,[2],1.03
same,CCL-11 (Eotaxin) Ratio of HFI to Vehicle,[2],1.29
same,CXCL-1 (KC) Ratio of HFI to Vehicle,[2],1.18
same,G-CSF Ratio of HFI to Vehicle,[2],1.02
same,GM-CSF Ratio of HFI to Vehicle,[2],0.99
same,IL-1a Ratio of HFI to Vehicle,[2],1.03
same,IL-1b Ratio of HFI to Vehicle,[2],1.16
same,IL-4 Ratio of HFI to Vehicle,[2],1.61**
same,IL-5 Ratio of HFI to Vehicle,[2],0.98
same,IL-6 Ratio of HFI to Vehicle,[2],0.98
same,IL-9 Ratio of HFI to Vehicle,[2],1.19*
same,IL-10 Ratio of HFI to Vehicle,[2],1.09
same,IL-12 p40 Ratio of HFI to Vehicle,[2],1.31
same,IL-12 p70 Ratio of HFI to Vehicle,[2],0.88
same,IL-13 Ratio of HFI to Vehicle,[2],0.96
same,IL-17A Ratio of HFI to Vehicle,[2],0.95
same,L-2 Ratio of HFI to Vehicle,[2],1.12
same,M-CSF (IL-3) Ratio of HFI to Vehicle,[2],1.02
same,TNF-a Ratio of HFI to Vehicle,[2],0.92
